Literature values as cited in patent publication US20040053391A1, “Renal cell carcinoma-antigen G250-derived peptides that elicit both CD4+ and CD8+ T-cell responses” (Katholieke Universiteit Nijmegen, priority 2002, published 2004).

Test system: CD8+CTL's
Details: HLA-A2.1; Vissers et al. 1999, WO 01/98363

G250 amino acid sequence from 254 to 262: previously identified HLA-A2.1-restricted CTL epitope of G250, comprised within 249-268 (HLSTAFARV; UniProt Q16790 254-262, looked up, fragment)
CTL epitope character: HLA-A2.1-restricted CTL epitope that is both naturally processed and immunogenic
